Assays:
Type in all cases: in vivo
[1] = system: barnyardgrass (Echinochloa crus-galli); experiment: Test C preemergence barnyardgrass; details: Table C, scale 0 to 100
From the text: (§1) Seeds of plant species selected from blackgrass (Alopecurus myosuroides), ryegrass, Italian (Italian ryegrass, Lolium multiflorum), wheat (winter wheat, Triticum aestivum), galium (catchweed bedstraw, Galium aparine), corn (Zea mays), crabgrass, large (large crabgrass, Digitaria sanguinalis), foxtail, giant (giant foxtail, Setaria faberii), johnsongrass (Sorghum halepense), lambsquarters (Chenopodium album), morningglory (Ipomoea coccinea), yellow (yellow nutsedge, Cyperus esculentus), pigweed (Amaranthus retroflexus), ragweed (common ragweed, Ambrosia elatior), soybean (Glycine max), barnyardgrass (Echinochloa crus-galli), oilseed rape (Brassica napus), waterhemp (common waterhemp, Amaranthus rudis), and velvetleaf (Abutilon theophrasti) were planted into a blend of loam soil and sand and treated preemergence with test chemicals formulated in a non-phytotoxic solvent mixture which included a surfactant. At the same time, plants selected from these crop and weed species and also chickweed (common chickweed, Stellaria media), kochia (Kochia scoparia), and oat, wild (wild oat, Avena fatua) were planted in pots containing Sunshine Redi-Earth® planting medium comprising spaghnum peat moss, vermiculite, starter nutrients and dolomitic limestone and treated with postemergence applications of test chemicals formulated in the same manner. Plants ranged in height from 2 to 18 cm (1- to 4-leaf stage) for postemergence treatments. Treated plants and controls were maintained in a greenhouse for 13 to 15 days, after which time all species were compared to controls and visually evaluated. Plant response ratings, summarized in Table C, are based on a scale of 0 to 100 where 0 is no effect and 100 is complete control. A dash (-) response means no test result.

[2] = system: lambsquarters (Chenopodium album); experiment: Test C preemergence lambsquarters; details: Table C, scale 0 to 100
From the text: as §1

[3] = system: foxtail, giant (giant foxtail, Setaria faberii); experiment: Test C preemergence foxtail, giant; details: Table C, scale 0 to 100
From the text: as §1

corn (Zea mays) [4] = experiment: Test C preemergence corn; details: Table C, scale 0 to 100
From the text: as §1

[5] = system: waterhemp (common waterhemp, Amaranthus rudis); experiment: Test C preemergence waterhemp; details: Table C, scale 0 to 100
From the text: as §1

[6] = system: wheat (winter wheat, Triticum aestivum); experiment: Test C preemergence wheat; details: Table C, scale 0 to 100
From the text: as §1

[7] = system: crabgrass, large (large crabgrass, Digitaria sanguinalis); experiment: Test C postemergence crabgrass, large; details: Table C, scale 0 to 100
From the text: as §1

[8] = system: ragweed (common ragweed, Ambrosia elatior); experiment: Test C postemergence ragweed; details: Table C, scale 0 to 100
From the text: as §1

[9] = system: yellow (yellow nutsedge, Cyperus esculentus); experiment: Test C postemergence yellow nutsedge; details: Table C, scale 0 to 100
From the text: as §1

[10] = system: chickweed (common chickweed, Stellaria media); experiment: Test C postemergence chickweed; details: Table C, scale 0 to 100
From the text: as §1

[11] = system: ryegrass, Italian (Italian ryegrass, Lolium multiflorum); experiment: Test C postemergence ryegrass, Italian; details: Table C, scale 0 to 100
From the text: as §1

corn (Zea mays) [12] = experiment: Test C postemergence corn; details: Table C, scale 0 to 100
From the text: as §1

[13] = system: pigweed (Amaranthus retroflexus); experiment: Test C postemergence pigweed; details: Table C, scale 0 to 100
From the text: as §1

soybean (Glycine max) = experiment: Test C postemergence soybean; details: Table C, scale 0 to 100
From the text: as §1

kochia (Kochia scoparia) = experiment: Test C postemergence kochia; details: Table C, scale 0 to 100
From the text: as §1

[14] = system: blackgrass (Alopecurus myosuroides); experiment: Test C postemergence blackgrass; details: Table C, scale 0 to 100
From the text: as §1

[15] = system: galium (catchweed bedstraw, Galium aparine); experiment: Test C postemergence galium; details: Table C, scale 0 to 100
From the text: as §1

[16] = system: velvetleaf (Abutilon theophrasti); experiment: Test A postemergence velvetleaf; details: 0 to 100 scale, 0 is no effect, 100 is complete control
Procedure, shortened: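 Scores are visual injury ratings on a 0–100 scale (100 = complete control) taken about 10 d after treatment, relative to untreated greenhouse controls. Preemergence: directed soil spray over planted seeds in loam/sand; postemergence: spray onto one- to two-leaf plants 2–10 cm high; surfactant-containing solvent formulation.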

SMILES: O=C1NCCC(c2cccc(C(F)(F)F)c2)C1C(=O)Nc1ccc(F)c(F)c1F (racemic) [Compound 28]
- Plant response rating ([1]; 31 g ai/ha): 60
- Plant response rating ([1]; 62 g ai/ha): 75
- Plant response rating ([1]; 125 g ai/ha): 90
- Plant response rating ([1]; 250 g ai/ha): 95
- Plant response rating ([2]; 31 g ai/ha): 5
- Plant response rating ([2]; 62 g ai/ha): 5
- Plant response rating ([2]; 125 g ai/ha): 5
- Plant response rating ([2]; 250 g ai/ha): 15
- Plant response rating ([3]; 31 g ai/ha): 60
- Plant response rating ([3]; 62 g ai/ha): 85
- Plant response rating ([3]; 125 g ai/ha): 95
- Plant response rating ([3]; 250 g ai/ha): 95
- Plant response rating (corn (Zea mays) [4]; 31 g ai/ha): 0
- Plant response rating (corn (Zea mays) [4]; 62 g ai/ha): 0
- Plant response rating (corn (Zea mays) [4]; 125 g ai/ha): 30
- Plant response rating (corn (Zea mays) [4]; 250 g ai/ha): 55
- Plant response rating ([5]; 31 g ai/ha): 0
- Plant response rating ([5]; 125 g ai/ha): 0
- Plant response rating ([5]; 250 g ai/ha): 60
- Plant response rating ([6]; 31 g ai/ha): 0
- Plant response rating ([6]; 62 g ai/ha): 0
- Plant response rating ([6]; 125 g ai/ha): 0
- Plant response rating ([6]; 250 g ai/ha): 10

SMILES: O=C1NCCC(c2cccc(C(F)(F)F)c2)C1C(=O)Nc1ccccc1Cl (racemic) [Compound 17]
- Plant response rating ([7]; 31 g ai/ha): 5
- Plant response rating ([7]; 62 g ai/ha): 20
- Plant response rating ([7]; 125 g ai/ha): 20
- Plant response rating ([7]; 250 g ai/ha): 55
- Plant response rating ([8]; 31 g ai/ha): 0
- Plant response rating ([8]; 62 g ai/ha): 0
- Plant response rating ([8]; 125 g ai/ha): 0
- Plant response rating ([8]; 250 g ai/ha): 0
- Plant response rating ([9]; 31 g ai/ha): 0
- Plant response rating ([9]; 62 g ai/ha): 0
- Plant response rating ([9]; 125 g ai/ha): 0
- Plant response rating ([9]; 250 g ai/ha): 0
- Plant response rating ([10]; 31 g ai/ha): 0
- Plant response rating ([10]; 62 g ai/ha): 0
- Plant response rating ([10]; 125 g ai/ha): 0
- Plant response rating ([10]; 250 g ai/ha): 5
- Plant response rating ([11]; 31 g ai/ha): 0
- Plant response rating ([11]; 62 g ai/ha): 0
- Plant response rating ([11]; 125 g ai/ha): 0
- Plant response rating ([11]; 250 g ai/ha): 0
- Plant response rating (corn (Zea mays) [12]; 31 g ai/ha): 0
- Plant response rating (corn (Zea mays) [12]; 62 g ai/ha): 0
- Plant response rating (corn (Zea mays) [12]; 125 g ai/ha): 0
- Plant response rating (corn (Zea mays) [12]; 250 g ai/ha): 0
- Plant response rating ([13]; 31 g ai/ha): 0
- Plant response rating ([13]; 62 g ai/ha): 0
- Plant response rating ([13]; 125 g ai/ha): 0
- Plant response rating ([13]; 250 g ai/ha): 5
- Plant response rating (soybean (Glycine max); 31 g ai/ha): 0
- Plant response rating (soybean (Glycine max); 62 g ai/ha): 10
- Plant response rating (soybean (Glycine max); 125 g ai/ha): 0
- Plant response rating (soybean (Glycine max); 250 g ai/ha): 0
- Plant response rating (kochia (Kochia scoparia); 31 g ai/ha): 0
- Plant response rating (kochia (Kochia scoparia); 62 g ai/ha): 0
- Plant response rating (kochia (Kochia scoparia); 125 g ai/ha): 0
- Plant response rating (kochia (Kochia scoparia); 250 g ai/ha): 0
- Plant response rating ([14]; 31 g ai/ha): 0
- Plant response rating ([14]; 62 g ai/ha): 0
- Plant response rating ([14]; 125 g ai/ha): 0
- Plant response rating ([14]; 250 g ai/ha): 0
- Plant response rating ([15]; 31 g ai/ha): 0
- Plant response rating ([15]; 62 g ai/ha): 0
- Plant response rating ([15]; 125 g ai/ha): 0
- Plant response rating ([15]; 250 g ai/ha): 0

SMILES: O=C1NCCC(c2cccc(C(F)(F)F)c2)C1C(=O)Nc1cccc(F)c1F (stereo not shown) [Compound 9, N-(2,3-difluorophenyl)-2-oxo-4-[3-(trifluoromethyl)phenyl]-3-piperidinecarboxamide]
- Plant response rating ([1]; 31 g ai/ha): 75
- Plant response rating ([1]; 62 g ai/ha): 90
- Plant response rating ([1]; 125 g ai/ha): 95
- Plant response rating ([1]; 250 g ai/ha): 95
- Plant response rating ([7]; 31 g ai/ha): 0
- Plant response rating ([7]; 62 g ai/ha): 35
- Plant response rating ([7]; 125 g ai/ha): 75
- Plant response rating ([7]; 250 g ai/ha): 75
- Plant response rating ([8]; 31 g ai/ha): 0
- Plant response rating ([8]; 62 g ai/ha): 0
- Plant response rating ([8]; 125 g ai/ha): 0
- Plant response rating ([8]; 250 g ai/ha): 5
- Plant response rating ([9]; 31 g ai/ha): 0
- Plant response rating ([9]; 62 g ai/ha): 0
- Plant response rating ([9]; 125 g ai/ha): 0
- Plant response rating ([9]; 250 g ai/ha): 0
- Plant response rating, Velvetleaf ([16]; 125 g ai/ha): 0
- Plant response rating, Velvetleaf ([16]; 500 g ai/ha): 0
- Plant response rating ([10]; 31 g ai/ha): 0
- Plant response rating ([10]; 62 g ai/ha): 0
- Plant response rating ([10]; 125 g ai/ha): 0
- Plant response rating ([10]; 250 g ai/ha): 5
- Plant response rating ([11]; 31 g ai/ha): 0
- Plant response rating ([11]; 62 g ai/ha): 0
- Plant response rating ([11]; 125 g ai/ha): 0
- Plant response rating ([11]; 250 g ai/ha): 0
- Plant response rating (corn (Zea mays) [12]; 31 g ai/ha): 0
- Plant response rating (corn (Zea mays) [12]; 62 g ai/ha): 0
- Plant response rating (corn (Zea mays) [12]; 125 g ai/ha): 0
- Plant response rating (corn (Zea mays) [12]; 250 g ai/ha): 0
- Plant response rating ([2]; 31 g ai/ha): 0
- Plant response rating ([2]; 62 g ai/ha): 0
- Plant response rating ([2]; 125 g ai/ha): 0
- Plant response rating ([2]; 250 g ai/ha): 0
- Plant response rating ([13]; 31 g ai/ha): 0
- Plant response rating ([13]; 62 g ai/ha): 0
- Plant response rating ([13]; 125 g ai/ha): 5
- Plant response rating ([13]; 250 g ai/ha): 5
- Plant response rating ([3]; 31 g ai/ha): 90
- Plant response rating ([3]; 62 g ai/ha): 95
- Plant response rating ([3]; 125 g ai/ha): 95
- Plant response rating ([3]; 250 g ai/ha): 98
- Plant response rating (corn (Zea mays) [4]; 31 g ai/ha): 0
- Plant response rating (corn (Zea mays) [4]; 62 g ai/ha): 0
- Plant response rating (corn (Zea mays) [4]; 125 g ai/ha): 75
- Plant response rating (corn (Zea mays) [4]; 250 g ai/ha): 90
- Plant response rating (soybean (Glycine max); 31 g ai/ha): 0
- Plant response rating (soybean (Glycine max); 62 g ai/ha): 0
- Plant response rating (soybean (Glycine max); 125 g ai/ha): 0
- Plant response rating (soybean (Glycine max); 250 g ai/ha): 10
- Plant response rating ([5]; 31 g ai/ha): 15
- Plant response rating ([5]; 62 g ai/ha): 0
- Plant response rating ([5]; 125 g ai/ha): 20
- Plant response rating ([5]; 250 g ai/ha): 0
- Plant response rating (kochia (Kochia scoparia); 31 g ai/ha): 0
- Plant response rating (kochia (Kochia scoparia); 62 g ai/ha): 0
- Plant response rating (kochia (Kochia scoparia); 125 g ai/ha): 0
- Plant response rating (kochia (Kochia scoparia); 250 g ai/ha): 0
- Plant response rating ([6]; 31 g ai/ha): 0
- Plant response rating ([6]; 62 g ai/ha): 30
- Plant response rating ([6]; 125 g ai/ha): 55
- Plant response rating ([6]; 250 g ai/ha): 70
- Plant response rating ([14]; 31 g ai/ha): 0
- Plant response rating ([14]; 62 g ai/ha): 0
- Plant response rating ([14]; 125 g ai/ha): 0
- Plant response rating ([14]; 250 g ai/ha): 0
- Plant response rating ([15]; 31 g ai/ha): 0
- Plant response rating ([15]; 62 g ai/ha): 0
- Plant response rating ([15]; 125 g ai/ha): 0
- Plant response rating ([15]; 250 g ai/ha): 40

SMILES: O=C1NCCC(c2cccc(C(F)(F)F)c2)C1C(=O)Nc1ccccc1C(F)(F)F (stereo not shown) [Compound 10, 2-oxo-N-[2-(trifluoromethyl)phenyl)-4-[3-(trifluoromethyl)phenyl]-3-piperidinecarboxamide]
- Plant response rating, Velvetleaf ([16]; 125 g ai/ha): 0
- Plant response rating, Velvetleaf ([16]; 500 g ai/ha): 0
